Assay [1] concerns the target RNA-directed RNA polymerase (Hepacivirus hominis) (UniProt O39930).
Assay [2] has the same target. This is another data set of the same source.
Assay [3] shares this target. This is another data set of the same source.
For assay [4] the target is unchanged. The source holds these as a separate data set.
Assay [5] shares this target. The source holds these as a separate data set.
Assay [6] has the same target. This is another data set of the same source.
The target is the same in assay [7]. The source holds these as a separate data set.
For assay [8] the target is unchanged. This is another data set of the same source.
Assay [9] has the same target. This is another data set of the same source.
Assay [10] shares this target. The source holds these as a separate data set.

Each structure is given as a SMILES string.

Chain of RNA-directed RNA polymerase (Hepacivirus hominis) (O39930 1-591): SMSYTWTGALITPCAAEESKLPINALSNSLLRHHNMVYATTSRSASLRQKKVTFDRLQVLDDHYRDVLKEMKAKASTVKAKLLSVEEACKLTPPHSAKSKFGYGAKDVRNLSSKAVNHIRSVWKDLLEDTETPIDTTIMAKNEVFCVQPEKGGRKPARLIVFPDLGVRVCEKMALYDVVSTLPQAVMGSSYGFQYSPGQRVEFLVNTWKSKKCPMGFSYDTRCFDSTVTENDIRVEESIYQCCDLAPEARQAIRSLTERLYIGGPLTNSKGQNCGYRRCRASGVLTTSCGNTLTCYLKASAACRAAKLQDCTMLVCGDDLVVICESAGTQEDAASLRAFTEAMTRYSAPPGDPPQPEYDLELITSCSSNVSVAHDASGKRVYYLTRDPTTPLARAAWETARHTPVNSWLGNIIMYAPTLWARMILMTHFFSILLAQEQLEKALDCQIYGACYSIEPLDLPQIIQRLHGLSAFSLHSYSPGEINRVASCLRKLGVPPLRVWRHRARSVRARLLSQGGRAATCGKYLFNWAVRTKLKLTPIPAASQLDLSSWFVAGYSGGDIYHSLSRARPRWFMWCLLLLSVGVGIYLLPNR

In turn, `COc1ccc2c(c1)C(C)=C1Cn3c-2c(C2CCCCC2)c2ccc(cc23)C(=O)NS(=O)(=O)N(C)CCOCCN(C)C1=O` displayed a k off in assay [1] of 3.6e-05 s⁻¹.
The same measure, in the same setting: under `COc1ccc2c(c1)C(C)=C1Cn3c-2c(C2CCCCC2)c2ccc(cc23)C(=O)NS(=O)(=O)N(C)CCCCN(C)C1=O` stands 0.00016 s⁻¹.
On the same count and under the same terms, next, `COc1ccc2c(c1)C=C1Cn3c-2c(C2CCCCC2)c2ccc(cc23)C(=O)NS(=O)(=O)N(C(C)C)CCCCN(C)C1=O`: 6.6e-05 s⁻¹; `COc1ccc2c(c1)C=C1Cn3c-2c(C2CCCCC2)c2ccc(cc23)C(=O)NS(=O)(=O)NCCCCN(C)C1=O`: 0.00031 s⁻¹.
The same measure, in the same setting: next, `COc1ccc2c(c1)C=C1Cn3c-2c(C2CCCCC2)c2ccc(cc23)C(=O)NS(=O)(=O)N(C)CCCCN(C)C1=O`: 4.8e-05 s⁻¹.
Take `COc1ccc2c(c1)C=C1Cn3c-2c(C2CCCCC2)c2ccc(cc23)C(=O)NS(=O)(=O)N(C)CCOCCN(C)C1=O`: the k off in assay [2] was 0.022 s⁻¹; in assay [3], 7.6e-05 s⁻¹; in [4], 0.022 s⁻¹; in assay [5] it was 0.00015 s⁻¹; in assay [6] it was 0.00013 s⁻¹; in assay [1], 9e-05 s⁻¹. Moreover, the k off in assay [7] turned out to be 0.00097 s⁻¹; in assay [8] it was 0.00084 s⁻¹; in assay [9], 0.00015 s⁻¹; in [10] it was 0.0001 s⁻¹.
On to `CN1CCCCN(C)S(=O)(=O)NC(=O)c2ccc3c(C4CCCCC4)c4n(c3c2)CC(=Cc2ccc(Cl)cc2-4)C1=O`, for which the k off in [1] was determined as 0.0037 s⁻¹.
On the same count and under the same terms, under `CN1CCCCCNC(=O)C2=Cc3ccc(Cl)cc3-c3c(C4CCCCC4)c4ccc(cc4n3C2)C(=O)NS1(=O)=O` stands 0.0038 s⁻¹.
In turn, `COc1ccc2c(c1)C=C1Cn3c-2c(C2CCCCC2)c2ccc(cc23)C(=O)NS(=O)(=O)N(C)CCCCNC1=O` showed a k off in assay [1] of 4.1e-05 s⁻¹.

(Values after ChEMBL document CHEMBL3886897, “Macrocyclic indole derivatives useful as hepatitis C virus inhibitors” (2016).)
